Among the data in PubChem BioAssay AID651650 (Sanford-Burnham Center for Chemical Genomics, 2012) are IC50 values, retold here.

The target in the assay is Neuropilin-1 (Homo sapiens) (UniProt O14786). In words: NRP-1 b1b2 CendR peptide binding inhibitors, dose response, biochemical, FP and AlphaScreen panel (AID 651650). Conditions: NRP-1 b1b2 / RPARPAR peptide binding, FP or AlphaScreen.
Setting [1] is: AlphaScreen, run 1, individual panel run IC50.
[2] abbreviates: FP, run 1, individual panel run IC50.
[3] abbreviates: FP, run 2, individual panel run IC50.

The source made the active and inactive calls.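 Rule for the calls: active = mean IC50 below 20 µM in each of the two panels, so potent in both; inactive = the rest.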

Neuropilin-1 (Homo sapiens), sequence (O14786 whole entry, looked up): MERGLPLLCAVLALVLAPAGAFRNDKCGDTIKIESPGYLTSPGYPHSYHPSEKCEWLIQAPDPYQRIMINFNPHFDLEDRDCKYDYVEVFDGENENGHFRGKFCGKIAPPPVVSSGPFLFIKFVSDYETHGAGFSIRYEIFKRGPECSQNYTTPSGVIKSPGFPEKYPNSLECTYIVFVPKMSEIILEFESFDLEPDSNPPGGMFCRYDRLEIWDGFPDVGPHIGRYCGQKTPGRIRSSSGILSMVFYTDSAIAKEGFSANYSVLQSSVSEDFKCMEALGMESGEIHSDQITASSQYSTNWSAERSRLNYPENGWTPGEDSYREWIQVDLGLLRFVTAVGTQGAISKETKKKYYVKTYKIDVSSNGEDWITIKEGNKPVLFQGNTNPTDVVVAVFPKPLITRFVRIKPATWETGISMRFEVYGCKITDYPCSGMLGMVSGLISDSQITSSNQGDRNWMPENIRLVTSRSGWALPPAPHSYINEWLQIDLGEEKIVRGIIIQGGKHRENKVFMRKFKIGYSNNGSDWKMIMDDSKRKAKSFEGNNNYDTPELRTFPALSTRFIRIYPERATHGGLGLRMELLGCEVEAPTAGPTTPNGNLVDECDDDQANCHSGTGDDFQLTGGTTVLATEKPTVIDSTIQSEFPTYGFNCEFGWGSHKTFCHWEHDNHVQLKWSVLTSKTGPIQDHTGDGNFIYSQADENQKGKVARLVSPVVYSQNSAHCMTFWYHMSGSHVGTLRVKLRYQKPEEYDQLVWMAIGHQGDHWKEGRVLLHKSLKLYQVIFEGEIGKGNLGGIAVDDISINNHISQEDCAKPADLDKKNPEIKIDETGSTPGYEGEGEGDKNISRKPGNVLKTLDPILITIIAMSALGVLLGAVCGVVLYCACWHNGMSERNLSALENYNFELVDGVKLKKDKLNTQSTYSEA

For the compound `Cc1ccc(Cn2c(C(C)Nc3nc(-c4ccc(Cl)c([N+](=O)[O-])c4)cs3)nc3cc(C(F)(F)F)ccc32)cc1` (stereo not given), the IC50 (commonly the concentration needed to halve the response being measured) is > 100 µM (inactive) (AlphaScreen, mean of runs); over 100 µM under setting [1]; > 95 µM (inactive) (FP, mean of runs); over 95 µM under setting [2]; over 95 µM under setting [3].
Take `Cc1ccc2cc(CN(c3ccccc3C)S(=O)(=O)c3ccccc3)c(=O)[nH]c2c1`: the IC50 (AlphaScreen, mean of runs) is > 100 µM (inactive); the IC50 under setting [1] is over 100 µM; the IC50 (FP, mean of runs) is > 95 µM (inactive); the IC50 under setting [2] is over 95 µM; the IC50 under setting [3] is over 95 µM.
Regarding `Cc1ccc(NC(=O)c2ccc3c(c2)S(=O)(=O)c2ccccc2C3=O)cc1S(=O)(=O)N1CCOCC1`, the IC50 was > 100 µM (inactive) (AlphaScreen, mean of runs); over 100 µM under setting [1]; > 95 µM (inactive) (FP, mean of runs); over 95 µM under setting [2]; over 95 µM under setting [3].
Consider `Cc1ccc(CN(CC(=O)NC2CCCCC2)C(=O)c2csnn2)cc1`, for which the IC50 (AlphaScreen, mean of runs) is > 100 µM (inactive); the IC50 under setting [1] was over 100 µM; the IC50 (FP, mean of runs) is > 95 µM (inactive); the IC50 under setting [2] is over 95 µM; the IC50 under setting [3] is over 95 µM.
Take `C#CCOc1nc(C)cc(C)c1S(=O)(=O)c1ccccc1C`: the IC50 (AlphaScreen, mean of runs) was > 100 µM (inactive); the IC50 under setting [1] is over 100 µM; the IC50 (FP, mean of runs) is > 95 µM (inactive); the IC50 under setting [2] was over 95 µM; the IC50 under setting [3] is over 95 µM.
As to `COc1ccc(N(CC(=O)NCc2ccco2)C(=O)CCC(=O)Nc2ccccn2)cc1`, the IC50 was > 100 µM (inactive) (AlphaScreen, mean of runs); over 100 µM under setting [1]; > 95 µM (inactive) (FP, mean of runs); over 95 µM under setting [2]; over 95 µM under setting [3].
On to `Cc1ccc(NC(=S)Nc2cccc3ccccc23)cc1`, for which the IC50 runs as follows: (AlphaScreen, mean of runs) > 100 µM (inactive); under setting [1], over 100 µM; (FP, mean of runs) > 95 µM (inactive); under setting [2], over 95 µM; under setting [3], over 95 µM.
Turning to `O=C(NNc1ncnc2c1cnn2-c1ccc(F)cc1)c1ccco1`, the IC50 (AlphaScreen, mean of runs) is > 100 µM (inactive); the IC50 under setting [1] was over 100 µM; the IC50 (FP, mean of runs) is > 95 µM (inactive); the IC50 under setting [2] was over 95 µM; the IC50 under setting [3] is over 95 µM.
Take `Cc1ccc(C(=O)N/C(=C\c2sccc2C)C(=O)NCc2ccco2)cc1`: for the setting “AlphaScreen, mean of runs”, the IC50 result was “inactive”. For the same compound, the IC50 was 92 µM under setting [1]; > 95 µM (inactive) (FP, mean of runs); over 95 µM under setting [2]; over 95 µM under setting [3].
Turning to `NC(N)=NCCC[C@H](NC(=O)OCc1ccccc1)C(=O)O`, the IC50 by setting is: (AlphaScreen, mean of runs) > 100 µM (inactive); under setting [1], over 100 µM; (FP, mean of runs) > 95 µM (inactive); under setting [2], over 95 µM; under setting [3], over 95 µM.
Turning to `CCCCc1ccc(S(=O)(=O)N2CCC3(CC2)OCCO3)cc1`, the IC50 runs as follows: (AlphaScreen, mean of runs) > 100 µM (inactive); under setting [1], over 100 µM; (FP, mean of runs) > 95 µM (inactive); under setting [2], over 95 µM; under setting [3], over 95 µM.
In the case of `Nc1ccc(C#Cc2c(-c3ccsc3)oc3ccc(N4CCOCC4)cc23)cc1`, the IC50 by setting is: (AlphaScreen, mean of runs) > 100 µM (inactive); under setting [1], over 100 µM; (FP, mean of runs) > 95 µM (inactive); under setting [2], over 95 µM; under setting [3], over 95 µM.
Turning to `Clc1nc(-c2ccccn2)nc2scc(-c3ccccc3)c12`, the IC50 reads like this: (AlphaScreen, mean of runs) > 100 µM (inactive); under setting [1], over 100 µM; (FP, mean of runs) > 95 µM (inactive); under setting [2], over 95 µM; under setting [3], over 95 µM.
For the compound `Cc1cccc(NS(=O)(=O)c2cccs2)c1`, the IC50 is > 100 µM (inactive) (AlphaScreen, mean of runs); over 100 µM under setting [1]; > 95 µM (inactive) (FP, mean of runs); over 95 µM under setting [2]; over 95 µM under setting [3].
Take `CCOC(=O)Cn1c(=O)n(Cc2ccco2)c(=O)c2ccc(C(=O)NC3CCCC3)cc21`: the IC50 result (AlphaScreen, mean of runs) is “inactive”. Further, the IC50 under setting [1] was found to be 63.7 µM; the IC50 (FP, mean of runs) was > 95 µM (inactive); the IC50 under setting [2] is over 95 µM; the IC50 under setting [3] is over 95 µM.
On to `CCCN(C(=O)Cn1c(C(F)(F)F)nc2ccccc21)C1CCS(=O)(=O)C1` (stereo not given), for which the IC50 was 11.2 µM (AlphaScreen, mean of runs); 11.2 µM under setting [1]; > 95 µM (inactive) (FP, mean of runs); over 95 µM under setting [2]; over 95 µM under setting [3].
For the compound `CC(=O)c1cccc(S(=O)(=O)N2CCC(C(=O)O)(c3ccccc3)CC2)c1`, the IC50 is, setting by setting: (AlphaScreen, mean of runs) > 100 µM (inactive); under setting [1], over 100 µM; (FP, mean of runs) > 95 µM (inactive); under setting [2], over 95 µM; under setting [3], over 95 µM.
As to `Cc1ccc(S(=O)(=O)N2[C@@H](c3ccc(Cl)cc3)C(C(=O)OC(C)(C)C)=CC[C@H]2c2ccc(Cl)c(Cl)c2)cc1`, the IC50 entry (AlphaScreen, mean of runs) is “inactive”. Further, the 50% inhibitory concentration (IC50) reads like this: under setting [1], 41 µM; (FP, mean of runs) > 95 µM (inactive); under setting [2], over 95 µM; under setting [3], over 95 µM.
As to `COc1cccc(NC(=O)CSc2nc(O)c(C)c(=O)n2-c2ccc(C)cc2)c1`, the IC50 (AlphaScreen, mean of runs) was > 100 µM (inactive); the IC50 under setting [1] is over 100 µM; the IC50 under setting [2] came out at 20.1 µM; the IC50 under setting [3] was over 95 µM. In addition, the IC50 entry (FP, mean of runs) is “inactive”.
Consider `COc1ccc(NC(=O)C(C)Sc2ccccc2)cc1` (stereo not given), for which the IC50 reads like this: (AlphaScreen, mean of runs) > 100 µM (inactive); under setting [1], over 100 µM; (FP, mean of runs) > 95 µM (inactive); under setting [2], over 95 µM; under setting [3], over 95 µM.
Regarding `Cc1cccc(CN2CCN(C3CN(Cc4cn(Cc5cccc(Cl)c5)nn4)S(=O)(=O)C3)CC2)c1` (stereo not given), the IC50 was > 100 µM (inactive) (AlphaScreen, mean of runs); over 100 µM under setting [1]; > 95 µM (inactive) (FP, mean of runs); over 95 µM under setting [2]; over 95 µM under setting [3].
Turning to `O=C(Nc1cc(C(F)(F)F)ccc1N1CCCC1)C1CC(=O)N(Cc2ccccc2)C1` (stereo not given), the IC50 is > 100 µM (inactive) (AlphaScreen, mean of runs); over 100 µM under setting [1]; > 95 µM (inactive) (FP, mean of runs); over 95 µM under setting [2]; over 95 µM under setting [3].
With `CC(C)(C)OC(=O)N1CCN(C(=O)c2[nH]cnc2C(=O)NCc2ccccc2)CC1`, the IC50 by setting is: (AlphaScreen, mean of runs) > 100 µM (inactive); under setting [1], over 100 µM; (FP, mean of runs) > 95 µM (inactive); under setting [2], over 95 µM; under setting [3], over 95 µM.
Take `O=[N+]([O-])c1ccc(-n2nnnc2CN2CCCCC2)cc1`: the IC50 reads like this: (AlphaScreen, mean of runs) > 100 µM (inactive); under setting [1], over 100 µM; (FP, mean of runs) > 95 µM (inactive); under setting [2], over 95 µM; under setting [3], over 95 µM.
Consider `O=C(Nc1ccc(N2CCOCC2)cc1)c1cc(-n2cnnc2)ccc1Cl`, for which the IC50 (AlphaScreen, mean of runs) is > 100 µM (inactive); the IC50 under setting [1] was over 100 µM; the IC50 (FP, mean of runs) is > 95 µM (inactive); the IC50 under setting [2] is over 95 µM; the IC50 under setting [3] is over 95 µM.
Turning to `COc1ccc(CN2C(=O)c3ccccc3C2=O)cc1C(=O)Nc1ccccc1N1CCOCC1`, the IC50 reads like this: (AlphaScreen, mean of runs) > 100 µM (inactive); under setting [1], over 100 µM; (FP, mean of runs) > 95 µM (inactive); under setting [2], over 95 µM; under setting [3], over 95 µM.
On to `c1cc(CNc2ccc3c(c2)OCO3)ccn1`, for which the IC50 reads like this: (AlphaScreen, mean of runs) > 100 µM (inactive); under setting [1], over 100 µM; (FP, mean of runs) > 95 µM (inactive); under setting [2], over 95 µM; under setting [3], over 95 µM.
As to `CCc1onc(C)c1C(=O)Nc1cc(C)ccc1OC`, the IC50 runs as follows: (AlphaScreen, mean of runs) 16 µM; under setting [1], 16 µM; (FP, mean of runs) > 95 µM (inactive); under setting [2], over 95 µM; under setting [3], over 95 µM.
With `CC(C)Cc1ccc(C(C)C(=O)Nc2ccc(O)cc2)cc1` (stereo not given), the IC50 reads like this: (AlphaScreen, mean of runs) > 100 µM (inactive); under setting [1], over 100 µM; (FP, mean of runs) > 95 µM (inactive); under setting [2], over 95 µM; under setting [3], over 95 µM.
As to `COc1ccc(-c2cc(C)no2)cc1S(=O)(=O)NCc1cccc(C)c1`, the IC50 is, setting by setting: (AlphaScreen, mean of runs) > 100 µM (inactive); under setting [1], over 100 µM; (FP, mean of runs) > 95 µM (inactive); under setting [2], over 95 µM; under setting [3], over 95 µM.
In the case of `CCNS(=O)(=O)c1ccc(CCC(=O)O)cc1`, the IC50 reads like this: (AlphaScreen, mean of runs) > 100 µM (inactive); under setting [1], over 100 µM; (FP, mean of runs) > 95 µM (inactive); under setting [2], over 95 µM; under setting [3], over 95 µM.
For the compound `CCOC(=O)[C@]12CCCC=C1N(CCC1=CCCCC1)C(=O)[C@H](CC(=O)NCC13CC4CC(CC(C4)C1)C3)C2`, the IC50 is, setting by setting: (AlphaScreen, mean of runs) > 100 µM (inactive); under setting [1], over 100 µM; (FP, mean of runs) > 95 µM (inactive); under setting [2], over 95 µM; under setting [3], over 95 µM.
Regarding `NC1=NC[C@@H](Cc2ccc(O)cc2)N1CCCCC1CCCCC1`, the IC50 is > 100 µM (inactive) (AlphaScreen, mean of runs); over 100 µM under setting [1]; > 95 µM (inactive) (FP, mean of runs); over 95 µM under setting [2]; over 95 µM under setting [3].
Regarding `Cc1ccccc1OCC1Cc2c(nc(N)c(C#N)c2N)O1` (stereo not given), the IC50 is > 100 µM (inactive) (AlphaScreen, mean of runs); over 100 µM under setting [1]; > 95 µM (inactive) (FP, mean of runs); over 95 µM under setting [2]; over 95 µM under setting [3].
